Patent publication US20230129485A1, “SYSTEM AND METHOD FOR DETERMINING MATERIAL PROPERTIES OF MOLECULAR SYSTEMS FROM AN AB-INITIO PARAMETERIZED FORCE-FIELD” (InterX, Inc., priority 2021, published 2023)
Where two headings read alike, the source gives them in different places.

What was measured:
[1] = Free energy of hydration predicted with the QM-parameterized force field model (ARROW FF), classical MD and PIMD simulation in a water box; conditions: for water Arrow MD Error / water Arrow PIMD8 Error: Table 3; for water Arrow MD Error: absolute error of MD hydration free energy vs experiment; for water Arrow PIMD8 Error: absolute error of PIMD8 hydration free energy vs experiment; for Arrow PIMD8 Error: absolute error vs Exp (hydration)
Excerpt: For example, the example QM-parameterized force-field molecular simulation process 400 can use Bennett Acceptance Ratio (BAR) to compute the free energy of hydration/solvation of the molecule in water or any other solvent. In some implementations, the analysis of the molecular dynamics simulations includes analysis, predication, and visualization of ensemble properties of atoms/molecules from atomic and molecular trajectories using the optimized parameters of the QM-parameterized force field model (i.e., the quantum mechanics rule-based reasoning technique) and the QM-parameterized force field model.
In some simulations of the QM-parameterized force field molecular simulation process, the molecules were placed in a water or cyclohexane box of size 32×32×32 Å3. Particle-Mesh Ewald (PME) algorithm was used to compute the electrostatic interactions. A 32×32×32 grid mesh and 5th power spline interpolation order can be used to compute the inverse PME sum. 9 Å cutoffs were used to compute the direct PME sum as well as the exchange and dispersion interactions. Bulk corrections were applied to account for distance cut-off of dispersion interactions. Solvation free energies were computed by decoupling the interactions between the solute and the solvent molecules. Electrostatic, exchange-repulsion and dispersion interactions were switched off simultaneously using a lambda-dependent scaling (a scaling factor power=2 was used) and a soft-coring algorithm (maximal soft-coring radius=1.5 Å, soft-coring radius scaling factor power=1). 15 lambda points unequally spaced (X=0, 0.05, 0.1, 0.2, 0.3, 0.4, 0.5, 0.6, 0.7, 0.75, 0.8, 0.85, 0.9, 0.95, 1.0) were used to decouple the solute-solvent intermolecular interactions.
In some simulations of the QM-parameterized force field molecular simulation process, energy minimization (10,000 steps) using the steepest descent algorithm was initially performed on all the simulation systems. This was followed by a 50 ps equilibration and 1 ns production runs in the isothermal-isobaric ensemble (NPT). […] Pressure was maintained at 1 atm using a MTTK barostat (relaxation time=5 ps). A Multiple Time Step (MTS) algorithm was used to integrate the equations of motion both for the classical and path-integral runs. […] The calculations were performed using the QM-parameterized force field model.
Using the QM-parameterized force field model, the QM-parameterized force field device can compute or predict the solvation free energies using both the Bennett acceptance ratio (BAR) and thermodynamic integration (TI) method with <dH/dλ> values interpolated by cubic splines. […] FIG. 7A illustrates a <dH/dλ> dependence for desolvation of Anthracene in water. FIG. 7B illustrates accumulated statistical errors for TI calculations of AG desolvation of Anthracene in water.

[2] = Table 3; free energy of solvation in cyclohexane, experimental; cited from earlier work
[3] = Free energy of hydration by Solvation Model Dielectric (SMD) implicit solvent model; conditions: absolute error vs Exp (hydration)
Experimental: (§1) Due to unavailability of free energy data for the original COSMO model, the free energies of solvation for the molecule dataset are calculated using MolPro ver. […] The comparisons to other implicit solvent models such as SMD, PCM and COSMO-RS are limited to the overlap of the molecules computed using QM-parameterized force field model. The free energies of hydration as predicted by these implicit solvent models (SMD, PCM) were received.

[4] = Table 3; CHEX/H2O partition coefficient, experimental; cited from earlier work
[5] = Free energy of hydration by COSMO implicit solvent model (MolPro ver. 2012); conditions: absolute error vs Exp (hydration)
Experimental: as §1

[6] = CHEX/H2O partition coefficient (log D) predicted with the QM-parameterized force field model (ARROW FF)
Excerpt: In some simulations, the example QM-parameterized force-field molecular simulation process includes using the functional form of the bonded interactions, with force constants and equilibrium values fitted to QM energies at the MP2/aug-cc-pVTZ level of theory. In some simulations, solvents of water and cyclohexane are selected. Cyclohexane (CHEX) is nonpolar and equilibrates relatively quickly. Reliable experimental data for both CHEX solvation free energies, as well as for the CHEX/H2O partition coefficients are used in these simulations.
In some example simulations, solutes containing neutral chemical functional groups, for example carboxylic acids, alkanes, alkenes, aromatics, aldehydes, ketones, alcohols, amides, esters, thiols, sulfides, disulfides and heterocycles, are used. The simulations were performed independently by four groups using their own respective computational resources and architectures, and then averaged. FIGS. 9A-9C show solvation and hydration free energies predictions of various solutes, using the QM-parameterized force field model, in some embodiments.
The straight line is a line of agreement between experimental and simulated/predicted values, and the gray bar is the range or chemical accuracy. […] The molecules here are a subset of those in a) because only those with experimental values for CHEX solvation can be included.

[7] = Free energy of hydration by Polarizable Continuum Model (PCM); conditions: absolute error vs Exp (hydration)
Experimental: as §1

[8] = Free energy of hydration by COSMO-RS
Experimental: as §1

[9] = implicit solvent model, values received; cited from earlier work
[10] = implicit solvent model, values received; cited from earlier work; remark: listed apart in the source
[11] = Table 3; free energy of hydration, experimental; cited from earlier work
[12] = Table 3, absolute error of MD log D vs experiment
[13] = Table 3, absolute error of PIMD log D vs experiment

| SMILES | water Arrow MD Error [1] | water Arrow PIMD8 Error [1] | Arrow PIMD8 Error [1] | CHEX Exp (solvation) [2] | SMD Error [3] | Exp (log D) [4] | COSMO/Molpro Error [5] | log D Arrow MD Error [6, 12] | log D Arrow PIMD Error [6, 13] | PCM Error [7] | COSMO-RS error [8] | estimated statistical error of computed free energy of solvation ([1]; 1 ns trajectory, TI, FIG. 7B, in water) | PCM free energy of hydration [9] | SMD free energy of hydration [10] | water Exp (hydration) [11] | log D Arrow MD Error [6] | log D Arrow PIMD Error [6] |
| --- | --- | --- | --- | --- | --- | --- | --- | --- | --- | --- | --- | --- | --- | --- | --- | --- | --- |
| CCC(C)=O [2-Butanone] | 0.43 kcal/mol | 0.16 kcal/mol | 0.16 kcal/mol | -3.47 kcal/mol | 0.09 kcal/mol | −0.18 | 4.15 kcal/mol | 0.11 | 0.21 | 0.19 kcal/mol | 0.17 kcal/mol | – | – | – | – | – | – |
| CC(C)(C)O [2-Methyl-2-Propanol] | 0.85 kcal/mol | 0.35 kcal/mol | 0.35 kcal/mol | – | 0.71 kcal/mol | – | 1.31 kcal/mol | – | – | 1.51 kcal/mol | 0.10 kcal/mol | – | – | – | – | – | – |
| c1ccc2cc3ccccc3cc2c1 [Anthracene] | 0.32 kcal/mol | 0.07 kcal/mol | 0.07 kcal/mol | – | 1.75 kcal/mol | – | 1.77 kcal/mol | – | – | 1.05 kcal/mol | 0.17 kcal/mol | about 0.2 kcal/mol | -2.90 kcal/mol | -2.20 kcal/mol | -3.95 kcal/mol | – | – |
| C=CC=C [Buta-13-diene] | 0.31 kcal/mol | 0.35 kcal/mol | 0.35 kcal/mol | – | 0.29 kcal/mol | – | 3.28 kcal/mol | – | – | 1.91 kcal/mol | 0.47 kcal/mol | – | -1.30 kcal/mol | 0.90 kcal/mol | 0.61 kcal/mol | – | – |
| OC1CCCCC1 [Cyclohexanol] | 1.09 kcal/mol | 0.34 kcal/mol | 0.34 kcal/mol | – | – | – | 1.03 kcal/mol | – | – | – | 0.33 kcal/mol | – | – | – | -5.47 kcal/mol | – | – |
| C=C [Ethene] | 0.29 kcal/mol | 0.19 kcal/mol | 0.19 kcal/mol | – | 0.12 kcal/mol | – | 2.95 kcal/mol | – | – | 2.08 kcal/mol | 0.55 kcal/mol | – | -0.80 kcal/mol | 1.40 kcal/mol | 1.28 kcal/mol | – | – |
| CCCCCC [Hexane] | 0.94 kcal/mol | 0.06 kcal/mol | 0.06 kcal/mol | – | 0.11 kcal/mol | – | 3.37 kcal/mol | – | – | 2.71 kcal/mol | 0.06 kcal/mol | – | -0.20 kcal/mol | 2.40 kcal/mol | 2.51 kcal/mol | – | – |
| c1ccc2ccccc2c1 [Napthalene] | 0.74 kcal/mol | 0.24 kcal/mol | 0.24 kcal/mol | -7.17 kcal/mol | 0.90 kcal/mol | 3.50 | 2.11 kcal/mol | 0.19 | 0.01 | 0.10 kcal/mol | 0.23 kcal/mol | – | -2.30 kcal/mol | -1.50 kcal/mol | -2.40 kcal/mol | – | – |
| CCCCC [Pentane] | – | – | – | – | – | 4.28 | – | – | – | – | – | – | – | – | – | 0.39 | 0.17 |
| CCCS [Propanethiol] | 0.81 kcal/mol | 0.40 kcal/mol | 0.40 kcal/mol | -3.12 kcal/mol | 0.15 kcal/mol | 1.52 | 2.88 kcal/mol | 0.38 | 0.36 | 1.15 kcal/mol | – | – | -2.20 kcal/mol | -0.90 kcal/mol | -1.05 kcal/mol | – | – |
| C=CC [Propene] | 0.48 kcal/mol | 0.05 kcal/mol | 0.05 kcal/mol | – | 0.12 kcal/mol | – | 3.00 kcal/mol | – | – | 2.12 kcal/mol | 0.32 kcal/mol | – | -0.80 kcal/mol | 1.20 kcal/mol | 1.32 kcal/mol | – | – |
| CCCC(=O)O [butyricacid] | 0.25 kcal/mol | 0.40 kcal/mol | 0.40 kcal/mol | – | 0.95 kcal/mol | – | 2.19 kcal/mol | – | – | 2.05 kcal/mol | 0.11 kcal/mol | – | -4.30 kcal/mol | -5.40 kcal/mol | -6.35 kcal/mol | – | – |
| CCCC=O [buytyraldehyde] | 0.61 kcal/mol | 0.07 kcal/mol | 0.07 kcal/mol | – | 0.18 kcal/mol | – | 4.47 kcal/mol | – | – | 0.52 kcal/mol | 0.07 kcal/mol | – | -3.70 kcal/mol | -3.00 kcal/mol | -3.18 kcal/mol | – | – |
| CN [methylamine] | 0.49 kcal/mol | 0.16 kcal/mol | 0.16 kcal/mol | – | – | – | 1.24 kcal/mol | – | – | – | 0.26 kcal/mol | – | – | – | -4.55 kcal/mol | – | – |
| C=CCCC [pent-1-ene] | 0.59 kcal/mol | 0.25 kcal/mol | 0.25 kcal/mol | – | 0.28 kcal/mol | – | 3.57 kcal/mol | – | – | 2.48 kcal/mol | 0.56 kcal/mol | – | -0.80 kcal/mol | 1.40 kcal/mol | 1.68 kcal/mol | – | – |
